Our source for the TGI and GI50 values is PubChem BioAssay (NCI).

Test systems include HCC-2998 colon; CAKI-1 renal; IGROV1 ovarian; SK-MEL-5 melanoma; SNB-75 CNS; SNB-19 CNS; NCI-H226 lung; U251 CNS; SF-539 CNS.
Common to all, as to experiment: inhibition of tumour cell growth, NCI panel, 48 h

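Protocol summary: plate cells (96-well), add compound at 5 concentrations, incubate 48 h, interpolate endpoints linearly. GI50: concentration for 50% inhibition of growth. Definition used: TGI = concentration required for complete inhibition of growth.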 A value given as a limit tells only on which side of the number the result lay.

With `CCCCCCCC1(c2ccc(N)cc2)CCC(=O)NC1=O` (stereo unspecified), the TGI was more than 100 µM in the test with HCC-2998 colon; more than 100 µM with CAKI-1 renal; more than 100 µM in the test on IGROV1 ovarian; 49.6 µM in the test on SK-MEL-5 melanoma; 96.2 µM in the test with SNB-75 CNS; more than 100 µM in the test with SNB-19 CNS.

For `COc1cccc2cc(N(C)c3nc(C)nc4c3CCC4)ccc12`, the GI50 with HCC-2998 colon was less than 0.01 µM; with NCI-H226 lung it was 12.7 µM; in the test with CAKI-1 renal, less than 0.01 µM; in the test with IGROV1 ovarian, less than 0.01 µM; with SK-MEL-5 melanoma, less than 0.01 µM; in the test with U251 CNS, less than 0.01 µM. In addition, the GI50 with SNB-19 CNS and in the test with SF-539 CNS was less than 0.01 µM throughout. Besides, the TGI in the test with HCC-2998 colon was 14 µM; with NCI-H226 lung, 32.4 µM; in the test on CAKI-1 renal it was 18.9 µM; in the test on IGROV1 ovarian, 23.9 µM; in the test on SK-MEL-5 melanoma it was 0.0161 µM; with U251 CNS it was 12.8 µM. For the same compound, the TGI in the test on SNB-75 CNS is 24.2 µM; in the test on SNB-19 CNS, 21.6 µM; in the test with SF-539 CNS, less than 0.01 µM.

Consider `Cc1ccc(C)c(N2C(=O)C(=O)C(c3nc4ccccc4o3)C(=O)C2=O)c1`, for which the TGI in the test with HCC-2998 colon, with NCI-H226 lung, with CAKI-1 renal, in the test with IGROV1 ovarian, in the test on SK-MEL-5 melanoma and in the test on U251 CNS was more than 100 µM throughout. The TGI with SNB-75 CNS, with SNB-19 CNS and in the test with SF-539 CNS was more than 100 µM in each case.

On to `Clc1ccc(-c2c3ccc(=[N+]4CCCCC4)cc-3oc3cc(N4CCCCC4)ccc23)cc1`, for which the GI50 with HCC-2998 colon was 0.12 µM; in the test with SK-MEL-5 melanoma it was 0.156 µM; with SNB-75 CNS it was 0.0494 µM; in the test on SNB-19 CNS, 0.133 µM. The TGI in the test on HCC-2998 colon amounted to 0.248 µM; in the test with SK-MEL-5 melanoma, 0.291 µM; in the test with SNB-75 CNS, 0.333 µM; with SNB-19 CNS, 0.313 µM.

Regarding `CCC(C)CC(C)CC(C)/C=C(\C)C1=C(C)CC(C)(O)O1` (stereo unspecified), the TGI with HCC-2998 colon, with NCI-H226 lung, in the test with CAKI-1 renal, with IGROV1 ovarian, in the test on SK-MEL-5 melanoma and in the test on U251 CNS was more than 100 µM each time. Also, the TGI with SNB-75 CNS and with SF-539 CNS was more than 100 µM throughout.

For the compound `Cc1ccc(NC(=O)C(=O)CC(=O)c2c(C)n([O-])c3ccccc3[n+]2=O)cc1C`, the TGI in the test with HCC-2998 colon, with NCI-H226 lung, with CAKI-1 renal, in the test on IGROV1 ovarian, in the test on SK-MEL-5 melanoma and with U251 CNS was more than 100 µM in each case. Further, the TGI with SNB-75 CNS, with SNB-19 CNS and in the test with SF-539 CNS was more than 100 µM in each case.

Turning to `Cc1cccc(C(=O)O)c1C(=O)c1cccc2ccccc12`, the TGI with HCC-2998 colon, with NCI-H226 lung, in the test with CAKI-1 renal, in the test with IGROV1 ovarian, in the test on SK-MEL-5 melanoma and with U251 CNS was more than 100 µM in each case. Besides, the TGI in the test on SNB-75 CNS and in the test on SNB-19 CNS was more than 100 µM each time.

Regarding `O=C(C(=O)n1ncc(Cl)c(Cl)c1=O)n1ncc(Cl)c(Cl)c1=O`, the TGI is 46.9 µM in the test on HCC-2998 colon; more than 100 µM with NCI-H226 lung; 44 µM in the test with CAKI-1 renal; more than 77.3 µM in the test on IGROV1 ovarian; 97.2 µM in the test with SK-MEL-5 melanoma; more than 100 µM with U251 CNS. In addition, the TGI in the test with SNB-75 CNS is 97.2 µM; in the test with SNB-19 CNS, more than 100 µM; with SF-539 CNS it was more than 68.8 µM.

With `COCCOc1cc(C)cc(/C=C(C)/C=C/C2=C(C)CCCC2(C)C)n1`, the TGI is more than 100 µM in the test with NCI-H226 lung; more than 100 µM with CAKI-1 renal; more than 100 µM in the test on IGROV1 ovarian; 39.8 µM with SK-MEL-5 melanoma; more than 100 µM in the test on U251 CNS; more than 100 µM in the test with SNB-75 CNS. Further, the TGI with SNB-19 CNS and with SF-539 CNS was more than 100 µM each time.

`CCCCCC(=O)Nc1nc2nc[nH]c2c(=O)[nH]1`: the TGI in the test on HCC-2998 colon, in the test with NCI-H226 lung, in the test on CAKI-1 renal, in the test with IGROV1 ovarian, with SK-MEL-5 melanoma and with U251 CNS was more than 100 µM throughout. The TGI with SNB-75 CNS, in the test on SNB-19 CNS and in the test with SF-539 CNS was more than 100 µM throughout.

For the compound `COc1ccc(C(=O)c2cc(C)c(OC)c(C)c2)c(OC)c1NC(C)=O`, the GI50 with HCC-2998 colon is 0.31 µM; with NCI-H226 lung it was 0.102 µM; in the test with CAKI-1 renal it was 0.0639 µM; with IGROV1 ovarian it was 0.529 µM; in the test on SK-MEL-5 melanoma, 0.364 µM; with U251 CNS, 0.353 µM. The GI50 is 0.0425 µM with SNB-75 CNS, 0.265 µM with SNB-19 CNS and 0.214 µM in the test on SF-539 CNS. In addition, the TGI was more than 100 µM in the test on HCC-2998 colon; 1.58 µM in the test on NCI-H226 lung; more than 100 µM in the test with CAKI-1 renal; more than 100 µM with IGROV1 ovarian; 7.15 µM in the test with SK-MEL-5 melanoma; more than 100 µM in the test with U251 CNS. Besides, the TGI with SNB-75 CNS was more than 100 µM; with SNB-19 CNS, more than 100 µM; in the test on SF-539 CNS, 0.848 µM.

Regarding `COc1ccc2nc(C(=O)c3ccccc3)c(C)cc2c1`, the TGI is 26.3 µM in the test with HCC-2998 colon; more than 86 µM in the test on NCI-H226 lung; more than 100 µM with CAKI-1 renal; more than 73.1 µM with IGROV1 ovarian; 12.3 µM in the test with SK-MEL-5 melanoma; 10.8 µM in the test on U251 CNS. Moreover, the figures for the TGI in the test on SNB-75 CNS, with SNB-19 CNS and with SF-539 CNS were 14.4 µM, more than 100 µM and 13.8 µM, respectively.

In the case of `N#Cc1ccccc1NC(=O)C(=O)C1NC(=S)NC1=O` (stereo unspecified), the TGI in the test with HCC-2998 colon, in the test on NCI-H226 lung, in the test on CAKI-1 renal, with IGROV1 ovarian, in the test with SK-MEL-5 melanoma and in the test on U251 CNS was more than 100 µM each time. For the same compound, the TGI with SNB-75 CNS, in the test with SNB-19 CNS and with SF-539 CNS was more than 100 µM each time.

With `CC1OC(=O)C(O)=C1O` (stereo unspecified), the TGI in the test with HCC-2998 colon, in the test on NCI-H226 lung, in the test on CAKI-1 renal, with IGROV1 ovarian, with SK-MEL-5 melanoma and in the test on U251 CNS was more than 100 µM throughout. Moreover, the TGI in the test on SNB-75 CNS, with SNB-19 CNS and in the test with SF-539 CNS was more than 100 µM each time.
